In the case of `Cn1c2ccc(-c3nnn[nH]3)cc2c(=O)c2cccnc21`, the melting point is reported as 321 °C.
Work on `Clc1ncnc2c1N(C1CC=CC1)CN2` yielded a melting point of 124 to 126 °C.
Work on `CC(C)N1C(=O)NC(c2ccc3c(c2)OCO3)c2cc3c(cc21)OCCO3` (configuration not stated) yielded a melting point of 197 to 200 °C.
With `Cc1c(C(=O)c2ccccc2)c(NC(=O)CI)cn1C` the melting point was 135 to 137 °C.
With `Nc1nc2cc(OCc3ccccc3)ccc2c2c1nc(CCCCNC(=O)Nc1ccccc1)n2CCOc1ccccc1` the melting point was 186 to 187 °C.
`CCOC(=O)C(=CN(C)c1cnsn1)C(=O)c1cc(F)c(Cl)nc1Cl` showed a melting point of 108 to 110 °C.
`COCc1nc2c(N)nc3ccccc3c2n1CC(C)(C)OCCS(C)(=O)=O` gave a melting point of 186 to 189 °C.
Molecule `FC(F)(F)c1ccc2nc(C3CCN(c4ncccc4Cl)CC3)[nH]c2c1` has a melting point of 74 °C.
`COCCNC(=O)Nc1ccc([N+](=O)[O-])cc1O` showed a melting point of 190 to 191 °C.
For `CC(C)(C)[C@@H]1OC(=O)[C@@H]2[C@H]1C2(C)C`, the melting point was 113 °C.
`Cc1ncoc1C(C)(O)c1ccco1` (configuration not stated) gave a melting point of 73 to 75 °C.
In the case of `CC(=O)c1ccc(OCC(O)CCCl)cc1` (configuration not stated), the melting point is reported as 75 to 77 °C.
Molecule `Clc1ccc(Cl)c(CN2CCNc3ncc(-c4ccc(N5CCCC5)nc4)cc32)c1` has a melting point greater than 200 °C.
With `CCN(CC)c1ccc(N2C[C@H](CNC(=O)c3ccc(Cl)s3)OC2=O)cc1` the melting point was 181 °C.
Work on `O=C(CCCCc1ccccc1)NC(C(=O)Nc1n[nH]c(=S)s1)c1ccccc1` (configuration not stated) yielded a melting point of 210 to 211 °C.
Molecule `Cc1c2c(nn1CCO)c(N)nc1ccccc12` has a melting point of 226 to 228 °C.
`CC(=O)OC1CSC(Oc2cccc(-c3cccnc3F)c2)C(OC(C)=O)C1OC(C)=O` (configuration not stated) gave a melting point of 116 °C.
Work on `COc1cc2c(Nc3ccc(Cl)cc3F)c(C#N)cnc2c(OC)c1OC` yielded a melting point of 166 to 168 °C.
For `CC(C)n1c(CO)c(-c2ccc(F)cc2)c(-c2ccccc2)c1C(N)=O`, the melting point was 189 to 190 °C.
`CCCN(CCC)[C@H]1Cc2c[nH]c3ccc(-c4cccnc4)c(c23)C1` gave a melting point of 185 to 186 °C.
In the case of `CCCN(CCC)C(=O)CC1CN(Cc2ccccc2)c2ccc(OC(=O)Nc3ccc(C(C)C)cc3)cc21` (configuration not stated), the melting point is reported as 157 to 161 °C.
`CC(C)C(=O)NCCCC(=O)OC1c2ccccc2C(=O)N1c1ccc2ccc(Cl)nc2n1` (configuration not stated) gave a melting point of 208 °C.
With `CC(=NOC(=O)N(C)SC(Cl)(Cl)Cl)SCCC#N` the melting point was 136 to 138 °C.
For `O=[N+]([O-])c1cc2c(c([N+](=O)[O-])c1)NCC2`, the melting point was 244 to 245 °C.
With `CC1=C(c2ccc(O)cc2)C(=O)c2ccc(O)cc21` the melting point was 138 to 146 °C.
Molecule `Cn1c2cc(OCCO)ccc2c2c3c(c(-c4ccccc4Cl)cc21)C(=O)NC3=O` has a melting point of 309 to 312 °C.
With `CCOC(=O)C1=C(C)NC(=S)N(C(=O)OCC)C1c1ccccc1Cl` (configuration not stated) the melting point was 126 to 128 °C.
With `O=C(Cc1ccccc1)Nc1ccc(NC(=O)OCc2ccccc2)c(O)c1` the melting point was 252 °C.
Work on `Cc1oc(-c2ccccc2)nc1CCOc1ccc(CC(C(=O)O)C(=O)N(C)C)cc1` (configuration not stated) yielded a melting point of 48.5 to 49.7 °C.
`CN1c2ccncc2NC(CCc2ccccc2)c2cccn21` (configuration not stated) showed a melting point of 92 to 94 °C.
For `CCN1C[C@@H](O)[C@H](N(C)C(=O)c2ccc(Cl)cc2)C1` (relative stereo), the melting point was 91 to 93 °C.
`Cc1c(Cl)cccc1Nc1ncccc1C(=O)OCOC(=O)C(C)(C)C` showed a melting point of 90 to 91 °C.
In the case of `CON=Cc1cc(NC(=O)N2CCOCN2)c(F)cc1Cl`, the melting point is reported as 169 to 171 °C.
Molecule `Clc1ccc2c(c1)oc1cc(OCCn3ccnc3)ccc12` has a melting point of 150 to 151 °C.
For `CNC(=O)c1ccc(F)c2c1CC(N(CCCCc1c[nH]c3ccc(F)cc13)C1CCC1)CO2` (configuration not stated), the melting point was 123 °C.
Work on `CC(C)NC(=S)N1CCc2c(ncn2C)C1` yielded a melting point of 200 °C.
In the case of `Cn1c(C(F)(F)F)cc(Cl)c(-c2ccc(Cl)c(NS(C)(=O)=O)c2)c1=O`, the melting point is reported as 161 to 163 °C.
`NC(=NCCc1ccccn1)Nc1ccc(Br)cn1` gave a melting point of 139 to 141 °C.
`Oc1cc(Cl)ccc1Oc1cccc(Br)c1` gave a melting point of 63 to 65 °C.
`C=Cc1ccc(OCc2ccccc2)cc1` showed a melting point of 68 to 69 °C.
`COC(=O)c1ccc(NCc2cccc(F)c2)cn1` showed a melting point of 89 to 92 °C.
In the case of `CC1(C)OC(=O)Nc2ccc(-c3cc(F)cc(C(F)(F)F)c3)cc21`, the melting point is reported as 207 to 208 °C.
With `Cc1cc(C)cc(Sc2c(CO)nc(C)n2C)c1` the melting point was 198 to 199 °C.
`CCC[C@H]1CC[C@H](CCCOc2ccc(C(=O)O[C@H](C)[C@@H](C)OC(=O)c3ccc(OCCC[C@H]4CC[C@H](CCC)CC4)cc3)cc2)CC1` gave a melting point of 109 °C.
With `Oc1ccc(-c2nc3cc(Cl)c(O)cc3o2)cc1` the melting point was 254 to 256 °C.
`CCOC(=O)c1[nH]c(C)c(C)c1CC(C)C` showed a melting point of 109 to 111 °C.
In the case of `COc1cccc(NC(=O)c2cccs2)c1`, the melting point is reported as 139 to 145 °C.
With `COC(=O)C(C)(O)c1ccc(-c2ccccc2)c(F)c1` (configuration not stated) the melting point was 59 to 61 °C.
Work on `CC1(C)COc2cc3c(cc21)C1(CO3)C(=O)N(C(c2ccccc2)c2ccccc2)c2ccccc21` (configuration not stated) yielded a melting point of 190 to 192 °C.
With `CCCCCCCCCCCCCCCCCCOC(=O)C(NC(C)=O)C(=O)OC` (configuration not stated) the melting point was 75 to 77 °C.
Molecule `O=C(O)c1c(I)c(I)c(C(=O)O)c(I)c1I` has a melting point of 205 to 206 °C.
Work on `O=C1c2ccccc2-c2c1c1ccccc1c(=O)n2CCCCCCO` yielded a melting point of 139 to 141 °C.
Molecule `CC(=O)n1nc(-c2c(C)cc(C)c([N+](=O)[O-])c2C)n2nc(C(C)(C)C)c(Cl)c12` has a melting point of 188 to 191 °C.
`O=C1NC(O)C2=C1CN=C(c1ccccc1Cl)c1cc(Cl)ccc12` (configuration not stated) gave a melting point of 247 to 249 °C.
Work on `CCOC(=S)c1cnc(C)nc1N` yielded a melting point of 130 to 131 °C.
`CCOC(=O)C=Cc1cccc(N)c1` showed a melting point of 84 to 85 °C.
`Cc1nc2ccc3c(c2o1)OC(CN1C2CCC1CC(O)(c1cccc(C(F)(F)F)c1)C2)CO3` (configuration not stated) gave a melting point of 148 to 150 °C.
With `CCC1(Cl)C(=O)c2c(cc(OCC(=O)O)c(Cl)c2Cl)C1C` (configuration not stated) the melting point was 208 to 210 °C.
`NC(=O)CC1C=CC=CC1(F)F` (configuration not stated) showed a melting point of 113 to 114 °C.
In the case of `CNc1cc(Cl)cc(NCCOC)c1[N+](=O)[O-]`, the melting point is reported as 93 °C.
Molecule `CC(C)(C)C(=O)Nc1ccc(F)cc1` has a melting point of 124 to 125 °C.
Work on `O=C1c2ccccc2OCC1SC(=O)C(F)(F)F` (configuration not stated) yielded a melting point of 75 to 79 °C.
Work on `O=C(O)c1oc(-c2ccccc2)cc(=O)c1Cl` yielded a melting point of 250 °C.
With `CCCCCCCCCCCCCCCCCC(=O)c1ccc(O)c(C(=O)O)c1` the melting point was 128 to 132 °C.
Work on `O=C1CCC2(CCC(=O)c3cc([N+](=O)[O-])ccc32)C(=O)N1` (configuration not stated) yielded a melting point of 273 to 275 °C.
With `COc1cc(C(=O)O)c(Br)cc1C(=O)O` the melting point was 275 °C.
In the case of `CCCC(=O)Nc1ncc(C(C)C)s1`, the melting point is reported as 95 to 97 °C.
For `COc1ccc2cc(CN(C)C(=O)c3cn(C)c4ccccc34)ccc2c1Br`, the melting point was 168 to 169 °C.
Molecule `CN1CCN(NC(=O)Nc2cccc3c2C(=O)c2c-3n[nH]c2-c2ccc(N(C)C)cc2)CC1` has a melting point greater than 300 °C.
`COCCCN1CCC(CNC(=O)c2cc(Cl)c(N)n3cc(C)nc23)CC1` gave a melting point of 167 °C.
`CCCN(CCCNc1ncc(Cc2ccc(F)cc2)c(=O)[nH]1)c1ccccn1` showed a melting point of 107 to 109 °C.
`Cc1nnc2ccc(-c3ccc(C(F)(F)F)cc3)nn12` showed a melting point of 199 to 201 °C.
For `CCN(CCCc1c[nH]c2c(OC)cccc12)C1COc2c(F)ccc(C(N)=O)c2C1` (configuration not stated), the melting point was 148 to 153 °C.
In the case of `CCOc1cc2c(cc1OCC)C(CC)C(C)=NN=C2c1ccc(OC)c(OC)c1` (configuration not stated), the melting point is reported as 91 to 93 °C.
With `C1=CC2(C3OCCO3)OC1c1ccccc12` (configuration not stated) the melting point was 48 to 49 °C.
In the case of `CNc1nc(N2CCN(Cc3ccccc3)CC2)ncc1CCO`, the melting point is reported as 119 to 120 °C.
For `N#CC(N=Nc1cc(S(=O)(=O)Cl)ccc1OC(=O)c1ccccc1)=C(OC(=O)c1ccccc1)c1ccccc1`, the melting point was 153 to 155 °C.
For `CCOP(=O)(OCC)C1Cc2cc(C(F)(F)F)cc3[nH]c(=O)c(=O)n(c23)C1` (configuration not stated), the melting point was 253 °C.
`O=C(O)c1cc(OC(F)(F)F)ccc1[N+](=O)[O-]` showed a melting point of 90 to 93 °C.
In the case of `CCOC(=O)C1=C(C=O)Nc2ccnc(OC(C)C)c2C1c1ccccc1C(F)(F)F` (configuration not stated), the melting point is reported as 108 to 109 °C.
Work on `CCOC(=O)c1cc(C)n(-c2cccc(N(C)C)c2)c1-c1ccccc1` yielded a melting point of 112 to 114 °C.
For `CC(=O)C(=O)Nc1ccc(Cl)cc1`, the melting point was 151 °C.
For `CCOC(=O)Cc1ccnc2c([N+](=O)[O-])cccc12`, the melting point was 67 to 69 °C.
With `COc1ccc2nc(COc3ccc(CC(SC(C)=O)C(=O)O)cc3)n(C)c2c1` (configuration not stated) the melting point was 209 to 214 °C.
With `O=C(OCC1OC(n2cnc3c(NOCc4ccccc4)nc(Cl)nc32)C(OC(=O)c2ccccc2)C1OC(=O)c1ccccc1)c1ccccc1` (configuration not stated) the melting point was 115 to 119 °C.
With `CCCc1cc(Cl)c2oc(C(=O)c3ccc(OC)cc3)c(C)c2c1O` the melting point was 103 to 105 °C.
With `N#CC(O)C(Cc1ccccc1)N1C(=O)c2ccccc2C1=O` (configuration not stated) the melting point was 128 to 132 °C.
`CCOC(=O)C1=Cc2cc(C(O)C(F)(F)F)ccc2OC1C(F)(F)F` (configuration not stated) gave a melting point of 114 to 120 °C.
For `CN(C)c1c(-c2ccc(Cl)cc2)sc2ccccc12`, the melting point was 81 to 83 °C.
`CCOC1=NC(C)(C)NC(N)=N1` gave a melting point of 175 to 178 °C.
`Cc1cccc2c1N(CC(=O)c1ccccc1O)C(=O)C(NC(=O)Nc1cccc(-c3nnn[nH]3)c1)N=C2c1ccccc1F` (configuration not stated) gave a melting point of 221 to 225 °C.
`N=C(N)c1cccc(Cn2ccc3ncn(Cc4ccc5ccc(C(=N)N)cc5c4)c3c2=O)c1` gave a melting point greater than 300 °C.
Work on `Cc1c(-c2ccncc2)nc2n(c1=O)CCCN2` yielded a melting point of 242 to 243 °C.
In the case of `Cc1ccc(-c2cnc([C@H]3CC[C@H](C#N)CC3)nc2)cc1`, the melting point is reported as 172 °C.
`COc1ccc(C(Sc2c(N)ccc3ccccc23)C(O)C(=O)O)cc1` (configuration not stated) showed a melting point of 143 to 145 °C.
With `CC1CCCN1CCCN1CCN(CCCN2CCCC2C)C1=C(C#N)C#N` (configuration not stated) the melting point was 89 to 93 °C.
With `COc1cccc(C(=O)C=Cc2cccc(O)c2)c1` the melting point was 74 to 77 °C.
For `O=C(N(Cc1ccccc1)Cc1cccs1)C12CC3CC(CC(C3)C1)C2`, the melting point was 130 to 132 °C.
With `CN1C(=O)N(c2cc(Cl)cc(Cl)c2)C(=O)[C@]12CN(Cc1ccccc1)C[C@H]2c1ccc(-c2cncnc2)cc1` (relative stereo) the melting point was 228 °C.
With `FC(F)(F)c1ccc(-c2nc(Br)cc(Br)n2)cc1` the melting point was 87 °C.
With `CC(C)N(C)C(=O)COc1cc(-c2ccccc2)nc2ccccc12` the melting point was 80 °C.
`CCOC(=O)c1cc(-c2ccc(Br)cc2)n(-c2ccc(S(C)(=O)=O)cc2)n1` showed a melting point of 176 °C.
